What was measured:
caspase-9 = test: Tethering experiments with caspase-9; set-up: species or system human; details: binding to the small subunit, cysteine corresponding to Ile-265 in caspase-3
Description: This example describes one embodiment of a tethering experiment using caspase-3 or cysteine mutants thereof. […] Reactions were allowed to proceed to equilibrium (≧1 hour) before being analyzed by mass spectrometry. The reaction mixture was loaded onto a Finnegan LCQ2 or LCQ3 LCMS, with each run taking 2-5 minutes, depending upon the separation procedure. After deconvolution, the large and/or small subunits were identified based upon their known molecular weight.

[1] = test system: mutant PTP-1B where Asn-193 is mutated to alanine, Phe-196 is mutated to arginine, and Phe-280 is mutated to cysteine; test: Inhibition of allosterically disabled mutant PTP-1B; type: biochemical, human; details: N193A, F196R, F280C mutant; allosteric mechanism disabled
Text: The importance of allosteric forming residues, Asn-193, Phe-196, and Phe-280 has been confirmed in part using mutagenesis experiments.
PTP-1B[321; N193A; F196R; F280C] was generated by joining an NdeI-PstI fragment from PTP-IB[321; N193A; F196R], corresponding to residues 1-215, with a PstI-EcoRI fragment from PTP-1B[321; F280C], corresponding to residues 216-321.
PTP-1B[298; N193A; F196R; F280C] was generated by PCR using PTP-1B[321; N193A; F196R; F280C] as a template. T7 vector primer was used as forward primer and truncation at residue 298 was generated using the primer 5′-[…] (SEQ ID. NO. 22).

Row | Compound | selection in tethering experiments (caspase-9) | inhibition of mutant PTP-1B [1]
1 | O=C(O)c1ccc(Oc2ccccc2)cc1 [compound 8] | selected | –
2 | CCc1oc2cc(S(=O)(=O)Nc3ccc(S(N)(=O)=O)cc3)ccc2c1C(=O)c1cc(Br)c(O)c(Br)c1 [compound 15] | – | no longer capable of inhibiting the enzyme
